In data set [1] the test system is Treponema hyodysenteriae. Description: Minimum inhibitory concentration against Treponema hyodysenteriae (agar dilution). It is filed as cell-based. The note with it: 10^6 CFU/ml. loopful, 37° C., 2 days; for MIC: Brachyspira hyodysenteriae, 48 h. Here is the method:
(1)Strains: These strains belong to Treponema hyodysenteriae isolated fro
the bloody mucous faeces of dysenteric pigs; MK 1, MK 2 and MK 4 were
obtained in Kyushu District of Japan while OX 1 was obtained in Okinawa,
(2)Antimicrobial potency assay: Agar Dilution Method
(3) Inoculum size: a loopful of 10^6 CFU/ml.
(4)Cultural conditions: Gas Pak (BBL) method, 37° C., 2 days
(In general: In agar dilution the substance is mixed into plates at graded concentrations.)

Data set [2] is described as follows: Acute oral toxicity (LD50). The note with it: for LD50: mouse, oral. In kind it is in vivo, mouse. From the text: (C) Carriomycin is extremely low in toxicity to animals.
Data set [3] relates to Treponema hyodysenteriae. Description: Therapeutic efficacy of medicated feed in pigs experimentally infected with swine dysentery. It is filed as in vivo, pigs (SPF LW). The procedure:
A premix containing 10% of carriomycin monosodium salt crystals as diluted with finely milled soybean meal was added to a feedstuff and pigs were allowed to take the feed as libitum. The feed was the proprietary pig starter mentioned in Example 2 without added antibiotics. The pigs were SPF LW and used in groups of 4 animals (2 male and 2 female.)
The pigs were infected as follows. Thus, Treponema hyodysenteriae was anaerobically grown on a 5% horse blood agar plate and the resultant culture was homogenized and admixed with 3% mucin-phosphate buffer. The mixture was directly administered into the stomach of each SPF pig. From each of the pigs showing typical symptoms of swine dysentery, the colon content and mucous membrane were taken and diluted two-fold with 3% mucin-phosphate buffer to obtain a final infective material. An 80 ml. portion of this preparation was directly infused into the stomach of each test pig, which was then put on the unmedicated feed for the initial six days. Beginning with the 7th day, each pig was put on the feed medicated with one of predetermined concentrations of the test drug and was reared for a total of 28 days. Tests were performed for three groups of animals dosed with 0 ppm. 15 ppm. and 150 ppm., respectively, of carriomycin.

The nature of data set [4]: Absorption from the digestive tract and residue in the animal body. As to conditions: in words.

The values that follow come from patent publication US4261978A, “Treatment and prophylaxis of swine dysentery” (Takeda Chemical Industries, Ltd., priority 1978, dated 1981).

Converted amounts (≈) assume the structure as drawn. Read-outs that look alike come from different tables or passages of the source.

The MIC is the smallest concentration in the dilution series that meets the test's criterion for growth inhibition. A high value points to a need for much substance. As for `CC[C@@]1([C@@H]2O[C@@H]([C@H]3O[C@@](O)(CO)[C@H](C)C[C@@H]3C)C[C@@H]2C)CC[C@H]([C@]2(C)CC[C@]3(C[C@H](O)[C@@H](C)[C@@H]([C@@H](C)[C@@H](OC)[C@H](C)C(=O)O)O3)O2)O1` [Monensin], the MIC in data set [1] (strain MK 1), in data set [1] (strain MK 2), in data set [1] (strain MK 4) and in data set [1] (strain OX 1) was 1 µg/mL (≈ 1.49 µM) throughout.

As usually defined, the LD50 is the dose expected to kill half of the subjects tested. As for `CC[C@@H](C(=O)[C@@H](C)[C@@H](O)[C@H](C)[C@@H]1O[C@@H]([C@@H](CC)C(=O)O)CC[C@@H]1C)[C@H]1O[C@]2(C=C[C@@H](O)[C@]3(CC[C@@](C)([C@H]4CC[C@](O)(CC)[C@H](C)O4)O3)O2)[C@H](C)C[C@@H]1C` [Salinomycin, salinomycin], the MIC in data set [1] (strain MK 1) was 1 µg/mL (≈ 1.33 µM); in data set [1] (strain MK 2), 1 µg/mL (≈ 1.33 µM); in data set [1] (strain MK 4), 0.1 µg/mL (≈ 0.133 µM); in data set [1] (strain OX 1), 1 µg/mL (≈ 1.33 µM). Also, the LD50 in data set [2] (in vivo, read-out: LD50) worked out at 50 mg/kg.

As for `COC1CCC(OC2C(C)C(CC3CC(OC)C(C)C4(O3)OC(C)(C3CCC(C5CCC(C6OC(C)(O)C(C)CC6C)O5)O3)C(OC)C4C)OC(O)(C(C)C(=O)O)C2C)OC1C` (stereo not drawn) [Carriomycin, carriomycin], in data set [3] (group B, 15 ppm. in feed), the “Mean body weight at end of test” value came to 29.1 kg./head, the “Mean feed conversion ratio” value is listed as 2.5, the Mean feed intake is reported as 36.5 kg./head and the “Mean number of days with bloody mucous faeces” value was 0.5 days/head. Also, in data set [3] (group B, 15 ppm. in feed), the “Mean number of days with diarrhea” value is reported as 3.0 days/head and the Mean weight gain stood at 14.6 kg./head. In addition, in data set [3] (group C, 150 ppm. in feed), the “Mean body weight at end of test” value is 31.7 kg./head, the “Mean feed conversion ratio” value is reported as 2.3, the Mean feed intake came to 37.3 kg./head and the “Mean number of days with bloody mucous faeces” value is 0.1 days/head. In data set [3] (group C, 150 ppm. in feed), the “Mean number of days with diarrhea” value is reported as 1.5 days/head and the Mean weight gain is given as 16.2 kg./head. Moreover, in data set [3] (in words, from Table 2), the body weight gain entry is listed as “considerable increases”; the “feed conversion ratio, number of days with diarrhea and number of days with bloody mucous faeces” value is on record as “considerable improvements”. Besides, the “Minimum inhibitory concentration (MIC)” value in data set [1] (strain MK 1) turned out to be 0.1 µg/mL (≈ 0.113 µM). Moreover, the “Minimum inhibitory concentration (MIC)” value in data set [1] (strain MK 2) was 0.1 µg/mL (≈ 0.113 µM). Moreover, the “Minimum inhibitory concentration (MIC)” value in data set [1] (strain MK 4) is 0.1 µg/mL (≈ 0.113 µM). The “Minimum inhibitory concentration (MIC)” value in data set [1] (strain OX 1) was found to be 0.1 µg/mL (≈ 0.113 µM). In addition, the toxicity to animals result in data set [2] (in words) was “extremely low”. Besides, the LD50 result in data set [2] is listed as “about 2,000 mg./kg”. Also, in data set [4], the “absorption from the digestive tract” value is listed as “sparingly absorbed” and the “residue in the animal body” value is recorded as “substantially no residue”.

Turning to `CCC(C(=O)C(C)C(O)C(C)CCc1ccc(C)c(O)c1C(=O)O)C1OC(CC)(C2CCC(O)(CC)C(C)O2)CC1C` (stereo not drawn) [Lasalocid A], the minimal inhibitory concentration (MIC) in data set [1] (strain MK 1), in data set [1] (strain MK 2), in data set [1] (strain MK 4) and in data set [1] (strain OX 1) was 10 µg/mL (≈ 16.9 µM) throughout. Besides, in data set [2] (in vivo, read-out: LD50), the LD50 worked out at 146 mg/kg.
